Results from paper PMC6566077 (Chemical Science, 2019).
Converted amounts (≈) assume the structure as drawn. Where two headings read alike, the source gives them in different places.

Legend:
Mycobacterium smegmatis = assay: microbe, parasite or virus in culture; type: cell-based, Mycobacterium smegmatis MC2155; conditions: for MIC: Mycolicibacterium smegmatis, read-out: MIC Mycobacteria, Mycobacterium smegmatis
Escherichia coli = assay: microbe, parasite or virus in culture; type: cell-based, Escherichia coli (Top 10)
[1] = tested on: Mycobacterium tuberculosis; assay: microbe, parasite or virus in culture; type: cell-based, Mycobacterium tuberculosis H37Rv
A549 cells [2] = assay: Cytotoxicity assay (resazurin, 24 h); conditions: 24 h exposure, viability by resazurin
Pseudomonas putida = assay: microbe, parasite or virus in culture; type: cell-based
Haemolysis assay = type: cell-based; conditions: sheep, ovine red blood cells, versus 100% lysis with lysis buffer
Procedure: (§1) Following incubation for 24 hours at
(§2) at 570 nm (BioTek Synergy HT microplate reader). All assays were undertaken with 3 independent experimental
(§3) Two-fold serial dilutions were then carried out diluting
(§4) 100 μL of ovine blood was
(§5) HT Microplate Reader). […] All assays
(§6) were undertaken with 3 independent experimental repeats.
(§7) DMSO compounds for compounds 3, 6 and 8.
(§8) Following addition of the
(§9) red colouring across whole well = agglutination). All assays were undertaken with three independent experimental

Mycobacterium bovis BCG = assay: microbe, parasite or virus in culture; type: cell-based; conditions: for MIC: Mycobacterium tuberculosis variant bovis BCG, BCG, read-out: MIC Mycobacteria, Mycobacterium bovis BCG
M. tuberculosis H37Rv [3] = type: cell-based, Mycobacterium tuberculosis H37Rv; conditions: checkerboard
Caco-2 cells = assay: Cytotoxicity assay (resazurin, 24 h); type: cell-based, human; conditions: 24 h exposure, viability by resazurin
[4] = tested on: ConA mediated agglutination of ovine blood; type: cell-based
Jurkat E6.1 cells = assay: Cytotoxicity assay (resazurin, 24 h); type: cell-based, human; conditions: 24 h exposure, viability by resazurin
[5] = tested on: Mycobacterium tuberculosis H37Rv; assay: Minimum bactericidal concentration (MBC), CFU plating; type: cell-based; conditions: actively growing M. tuberculosis H37Rv, lowest concentration with no CFUs
M. tuberculosis H37Rv [6] = type: cell-based, Mycobacterium tuberculosis H37Rv; conditions: for Outcome, interaction profile with Meropenem / ΣFIC, interaction profile with Meropenem: M. tuberculosis H37Rv, checkerboard; for Interaction with meropenem in checkerboard assay (words, Figure S7): representative checkerboard images
ovine red blood cells = assay: Haemolysis assay; type: cell-based; conditions: 1 hour, tested at 12.5 mM due to solubility issues
Procedure: as §1, §2, §3, §4, §5, §6, §7, §8, §9

A549 cells [7] = tested on: A549 cells
[8] = type: binding; conditions: for BLI binding to boronic acid functionalised sensor: components 0-100 µg/mL; for Kd: BLI, steady-state model, boronic acid functionalised sensor
[9] = Escherichia coli; read-out: MIC Gram-negative, Escherichia coli
[10] = Mycobacterium tuberculosis; read-out: MIC Mycobacteria, Mycobacterium tuberculosis
[11] = Pseudomonas putida; read-out: MIC Gram-negative, Pseudomonas putida
[12] = Mycobacterium tuberculosis; M. tuberculosis H37Rv, compound alone, REMA checkerboard (Table S3); read-out: MIC

OB(O)c1ccccc1 [Compound 1, reference compound]
MIC (Mycobacterium smegmatis): 12.5 to 25 mM (≈ 1520 to 3050 µg/mL)
MIC (Escherichia coli; [9]): 25 mM (≈ 3050 µg/mL)
MIC [1, 10]: 6.25 to 12.5 mM (≈ 762 to 1520 µg/mL)
A549 (MIC99) (A549 cells [2]): 50 mM
MIC (Pseudomonas putida; [11]): 12.5 to 25 mM (≈ 1520 to 3050 µg/mL)
hemolysis at 1 h (Haemolysis assay): 0%
MIC (Mycobacterium bovis BCG): 3.13 mM (≈ 382 µg/mL)

O=C(O)c1cccc(B(O)O)c1 [Compound 2, reference compound]
MIC (Mycobacterium smegmatis): 12.5 to 25 mM (≈ 2070 to 4150 µg/mL)
MIC (Escherichia coli; [9]): > 25 mM
MIC [1, 10]: 6.25 to 12.5 mM (≈ 1040 to 2070 µg/mL)
A549 (MIC99) (A549 cells [2]): > 25 mM
MIC (Pseudomonas putida; [11]): 12.5 to 25 mM (≈ 2070 to 4150 µg/mL)
hemolysis at 1 h (Haemolysis assay): 4.5%
MIC (Mycobacterium bovis BCG): 12.5 mM (≈ 2070 µg/mL)

O=C(O)c1ccc(B(O)O)cc1 [Compound 3, reference compound]
MIC (Mycobacterium smegmatis): 25 mM (≈ 4150 µg/mL)
MIC (Escherichia coli; Escherichia coli, read-out: MIC Gram-negative, Escherichia coli): > 25 mM
MIC ([1]; Mycobacterium tuberculosis, read-out: MIC Mycobacteria, Mycobacterium tuberculosis): 6.25 mM (≈ 1040 µg/mL)
A549 (MIC99) (A549 cells [2]): > 25 mM
MIC (Pseudomonas putida; Pseudomonas putida, read-out: MIC Gram-negative, Pseudomonas putida): 25 mM (≈ 4150 µg/mL)
hemolysis at 1 h (Haemolysis assay): 0.9%
MIC (Mycobacterium bovis BCG): 6.25 mM (≈ 1040 µg/mL)

O=C(NCCNC(=O)c1cccc(B(O)O)c1)c1cccc(B(O)O)c1 [Compound 4, N,N'-(ethylenediamine)bis(3-phenylboronic acid)amide]
MIC (Mycobacterium smegmatis): 3.13 mM (≈ 1110 µg/mL)
MIC (Escherichia coli; [9]): > 25 mM
MIC [1, 12]: 3.13 mM
MIC [1, 10]: 1.56 to 3.13 mM (≈ 555 to 1110 µg/mL)
Outcome, interaction profile with Rifampicin (M. tuberculosis H37Rv [3]): Additive (values in between correspond to additivity)
ΣFIC, interaction profile with Rifampicin (M. tuberculosis H37Rv [3]): 2
Caco-2 (MIC99) (Caco-2 cells): 50 mM
ConA agglutination [4]: No inhibition
Jurkat (MIC99) (Jurkat E6.1 cells): 12.5 mM
A549 (MIC99) (A549 cells [2]): 25 mM
MIC (Pseudomonas putida; [11]): > 25 mM
hemolysis at 1 h (Haemolysis assay): 0%
MBC [5]: 6.25 mM (≈ 2220 µg/mL)
MIC (Mycobacterium bovis BCG): 0.78 mM (≈ 278 µg/mL)
Outcome, interaction profile with Meropenem (M. tuberculosis H37Rv [6]): Additive (values in between correspond to additivity)
ΣFIC, interaction profile with Meropenem (M. tuberculosis H37Rv [6]): 1

O=C(NCCOCCOCCNC(=O)c1cccc(B(O)O)c1)c1cccc(B(O)O)c1 [Compound 5, N,N'-(2,2-(ethylenedioxy)bis(ethylamine))bis(3-phenylboronic acid)amide]
MIC (Mycobacterium smegmatis): 3.13 mM (≈ 1390 µg/mL)
MIC (Escherichia coli; [9]): > 25 mM
MIC [1, 12]: 3.13 mM
MIC [1, 10]: 1.56 to 3.13 mM (≈ 693 to 1390 µg/mL)
Outcome, interaction profile with Rifampicin (M. tuberculosis H37Rv [3]): Additive (values in between correspond to additivity)
ΣFIC, interaction profile with Rifampicin (M. tuberculosis H37Rv [3]): 2
Caco-2 (MIC99) (Caco-2 cells): 50 mM
ConA agglutination [4]: No inhibition
Jurkat (MIC99) (Jurkat E6.1 cells): 12.5 mM
A549 (MIC99) (A549 cells [2]): 25 mM
MIC (Pseudomonas putida; [11]): > 25 mM
hemolysis at 1 h (Haemolysis assay): 0%
MBC [5]: 6.25 mM (≈ 2780 µg/mL)
MIC (Mycobacterium bovis BCG): 0.78 to 1.56 mM (≈ 346 to 693 µg/mL)
Outcome, interaction profile with Meropenem (M. tuberculosis H37Rv [6]): Additive (values in between correspond to additivity)
ΣFIC, interaction profile with Meropenem (M. tuberculosis H37Rv [6]): 0.625

O=C(NCCCOCCOCCOCCCNC(=O)c1cccc(B(O)O)c1)c1cccc(B(O)O)c1 [Compound 6, N,N'-(4,7,10-trioxa-1,13-tridecanediamine)bis(3-phenylboronic acid)amide]
MIC (Mycobacterium smegmatis): 3.13 mM (≈ 1620 µg/mL)
MIC (Escherichia coli; [9]): > 25 mM
MIC [1, 12]: 1.56 mM
MIC [1, 10]: 1.56 to 3.13 mM (≈ 805 to 1620 µg/mL)
Outcome, interaction profile with Rifampicin (M. tuberculosis H37Rv [3]): Additive (values in between correspond to additivity)
ΣFIC, interaction profile with Rifampicin (M. tuberculosis H37Rv [3]): 2
Caco-2 (MIC99) (Caco-2 cells): 25 mM
ConA agglutination [4]: No inhibition
Jurkat (MIC99) (Jurkat E6.1 cells): 25 mM
A549 (MIC99) (A549 cells [2]): 25 mM
MIC (Pseudomonas putida; [11]): > 25 mM
hemolysis at 1 h (Haemolysis assay): 0%
MBC [5]: 6.25 mM (≈ 3230 µg/mL)
MIC (Mycobacterium bovis BCG): 0.78 to 1.56 mM (≈ 403 to 805 µg/mL)
Outcome, interaction profile with Meropenem (M. tuberculosis H37Rv [6]): Additive (values in between correspond to additivity)
ΣFIC, interaction profile with Meropenem (M. tuberculosis H37Rv [6]): 0.625
Interaction with meropenem in checkerboard assay (words, Figure S7) (M. tuberculosis H37Rv [6]): additivity

O=C(NCCOCCOCCOCCOCCOCCOCCOCCOCCOCCOCCOCCOCCOCCOCCOCCOCCOCCOCCOCCOCCOCCOCCOCCNC(=O)c1cccc(B(O)O)c1)c1cccc(B(O)O)c1 [Compound 7, N,N'-(polyoxyethylenebis(amine))bis(3-phenylboronic acid)amide]
MIC (Mycobacterium smegmatis): 25 mM (≈ 34200 µg/mL)
MIC (Escherichia coli; [9]): > 25 mM
MIC (Pseudomonas putida; [11]): > 25 mM
MIC (Mycobacterium bovis BCG): > 25 mM

O=C(CCN(CCOCCOCCN(CCC(=O)NCCOCCOCCNC(=O)c1cccc(B(O)O)c1)CCC(=O)NCCOCCOCCNC(=O)c1cccc(B(O)O)c1)CCC(=O)NCCOCCOCCNC(=O)c1cccc(B(O)O)c1)NCCOCCOCCNC(=O)c1cccc(B(O)O)c1 [Compound 8, 2,2’-(Ethylenedioxy)bis(ethylamine) G1 PAMAM tetra(3-phenylboronic acid)amide dendrimer]
MIC Mycobacteria, Mycobacterium smegmatis (Mycobacterium smegmatis): 0.78 mM (≈ 1210 µg/mL)
MIC Gram-negative, Escherichia coli (Escherichia coli): >25 mM
MIC Mycobacteria, Mycobacterium tuberculosis [1]: 0.78 to 1.56 mM
MIC against Mtb [1]: 0.78 mM (≈ 1210 µg/mL)
MIC Gram-negative, Pseudomonas putida (Pseudomonas putida): >25 mM
Haemolysis (%) (ovine red blood cells): 4.5%
A549 (MIC99) (A549 cells [7]): > 25 mM
MIC Mycobacteria, Mycobacterium bovis BCG (Mycobacterium bovis BCG; resazurin reduction microtitre plate assay): 1.56 mM (≈ 2420 µg/mL)

CC1(C)[C@H](C(=O)O)N2C(=O)C[C@H]2S1(=O)=O [Sulbactam, reference compound]
MIC [1, 12]: 0.134 mM
Outcome, interaction profile with Meropenem (M. tuberculosis H37Rv [6]): Synergistic (ΣFICs of ≤0.5 designate synergistic activity)
ΣFIC, interaction profile with Meropenem (M. tuberculosis H37Rv [6]): 0.313
ΣFIC, interaction profile with Meropenem (M. tuberculosis H37Rv [6]; listed as sulbactam): 0.3
Interaction with meropenem in checkerboard assay (words, Figure S7) (M. tuberculosis H37Rv [6]): synergistic activity

Galactan [reference compound]
BLI binding to boronic acid functionalised sensor [8]: no binding was observed

Lipoarabinomannan [LAM]
Kd [8]: 41.5 μg mL^–1
BLI binding to boronic acid functionalised sensor [8]: interacted strongly

Lipomannan [LM]
BLI binding to boronic acid functionalised sensor [8]: interacted strongly

Phosphatidylinositol Mannoside 6 [PIM6]
BLI binding to boronic acid functionalised sensor [8]: weak binding affinity

Phosphatidylinositol Mannosides 1 & 2 [PIM 1 + 2]
BLI binding to boronic acid functionalised sensor [8]: very weak binding

Trehalose Dimycolate [TDM]
Kd ([8]; read-out: Kd): 4 µM
BLI binding to boronic acid functionalised sensor [8]: interacted strongly

Trehalose Monomycolate [TMM]
Kd ([8]; read-out: Kd): 12 µM
BLI binding to boronic acid functionalised sensor [8]: interacted strongly

dextran [reference compound]
BLI binding to boronic acid functionalised sensor [8]: no binding was observed

lipopolysaccharide [LPS, reference compound]
BLI binding to boronic acid functionalised sensor [8]: weak binding

monosialodihexosylganglioside [GM3, reference compound]
BLI binding to boronic acid functionalised sensor [8]: no detectable binding

mycolic acid methyl esters [MAMEs]
BLI binding to boronic acid functionalised sensor [8]: no detectable binding
